We go through two compounds from patent US11970497B2, “Tricyclic AKR1C3 dependent KARS inhibitors” (Novartis AG, priority 2019, dated 2024).

Common to all, as to assay: Expanded lung cancer cell line proliferation assay
Holding throughout (format): cell-based

One test relates to LCLC-103H. The note with it: Homo sapiens, 72 h, average of PrestoBlue and Cell Titer Glo, AKR1C3 2.6 TPM, read-out: Absolute Qualified AC50. The text has this: (§1) Cellular Proliferation Assay to Assess Compound Activity in an Expanded Panel of 57 NRF2 Pathway Mutant and Wild Type Lung Cancer Cell Lines.
(§2) Both the PrestoBlue Cell Viability Reagent and Cell Titer Glo were multiplexed together as the final assay readout. PrestoBlue is a cell permeable resazurin-based solution that utilizes the reducing power of living cells to quantitatively measure their proliferation. Cell Titer Glo measures the amount of ATP present, an indicator of metabolically active cells.
(§3) Expanded Lung Cancer Cell Line Proliferation Assay Outline, Analysis and Profiling Results
(§4) Cells were seeded into 384 well assay plates (Greiner Bio-One, Catalog #781080) using the Thermo Scientific Matrix WellMate microplate dispenser and Thermo Scientific Matrix WellMate small bore disposable tubing cartridges (Catalog #201-30002) in 30 μl of growth media (RPMI-1640 supplemented with 10% fetal bovine serum and 1% penicillin/streptomycin) per well (1000 to 2000 cells/well depending on doubling time). Following cell plating, assay plates were placed into tissue culture incubator at 37° C./5% CO2 overnight. The next day one assay plate for each cell line was used for a Day 0 Cell Titer Glo and PrestoBlue readout. 3 μl of PrestoBlue Cell Viability Reagent (Thermo Scientific, Catalog #A13262) was added to each well and then assay plates were incubated at 37° C./5% CO2 for 30 minutes prior to fluorescence readout on the EnVision 2105 multimode plate reader (Perkin Elmer). Following the PrestoBlue readout 18 μl of Cell Titer Glo (Promega, Catalog #G7572) was then added to each well, allowing plates to incubate at room temperature for 10 minutes prior to luminescence readout on the EnVision. Compound was then added to the remaining assay plates (each cell line run in triplicates) using the Labcyte Inc Echo 555 acoustic liquid handler. Compounds were arrayed into a Labcyte Inc Echo qualified 384 well LDV microplate (Cat #LP-0200-GNF10). Compounds were serially diluted 1:3.16 to generate an 8 point dose response for a final top concentration of 1 μM. DMSO (0.3%) was used as the neutral control (NC) and MG132 (30 μM) was used as the active control (AC). 90 nl of compounds were added to 30 μl of cells using the Labcyte Inc Echo 555 acoustic liquid handler for a final DMSO assay concentration of 0.3%. Following compound addition, assay plates were spun down in a tabletop centrifuge at 500 rpm for 1 minute and then placed into tissue culture incubator at 37° C./5% CO2 for 72 h. Following the 72 h incubation, all assay plates were readout using PrestoBlue and Cell Titer Glo using the same conditions previously described for the Day 0 readout. The Day 0 readout (untreated cells) was used to compare to the 72 h DMSO treated samples on each assay plate as a way of tracking each cell line's fold growth. NC1 control based normalization was used for data analysis in Helios, which incorporates the DMSO neutral control (NC) and MG132 active control (AC) for generating dose response curves that are then used to calculate the Absolute Qualified AC50 calls for each compound and cell line.
(§5) NC1 normalization calculation model: NC1: xn=±(x−NC)/(AC−NC)
(§6) +/− is set by the inhibition type parameter setting where NC and AC are averages (mean or median) over the corresponding NC and AC well values. The Qualified Absolute AC50 values for Compound 36 and Compound 40 are listed in the table below and are represented as the average activity in both the PrestoBlue and Cell Titer Glo assay readouts.
(§7) Absolute Qualified AC50 Values Listed Below are a Representation of Each Compounds' Average Activity in Both the PrestoBlue and Cell Titer Glo Assay Readouts.
In general terms: ATP-based viability assays read luminescence as a measure of living cells.

The test system of a further test is SBC5. The note with it: Homo sapiens, SBC-5; SBC5, 72 h, average of PrestoBlue and Cell Titer Glo; AKR1C3 5.5 TPM; read-out: Absolute Qualified AC50.
Source text: as §1, §2, §3, §4, §5, §6, §7

The test system of the next test is NCI-H1299. The note with it: Homo sapiens; NCI-H1299, 72 h, average of PrestoBlue and Cell Titer Glo; AKR1C3 1.3 TPM; read-out: Absolute Qualified AC50.
Source text: as §1, §2, §3, §4, §5, §6, §7

In the next test the test system is A427. The note with it: Homo sapiens, A-427; A427, 72 h, average of PrestoBlue and Cell Titer Glo; AKR1C3 0.2 TPM; read-out: Absolute Qualified AC50.
Source text: as §1, §2, §3, §4, §5, §6, §7

A further test concerns NCI-H1944. Particulars: Homo sapiens; NCI-H1944, 72 h, average of PrestoBlue and Cell Titer Glo; AKR1C3 3164.3 TPM; read-out: Absolute Qualified AC50.
Source text: as §1, §2, §3, §4, §5, §6, §7

The subject of another test is NCI-H1573. Particulars: Homo sapiens; NCI-H1573, 72 h, average of PrestoBlue and Cell Titer Glo; AKR1C3 306.2 TPM; read-out: Absolute Qualified AC50.
Source text: as §1, §2, §3, §4, §5, §6, §7

In the next test the test system is HCC95. The note with it: Homo sapiens; HCC95, 72 h, average of PrestoBlue and Cell Titer Glo; AKR1C3 939.1 TPM; read-out: Absolute Qualified AC50.
Source text: as §1, §2, §3, §4, §5, §6, §7

The next test has as its system NCI-H1792. Particulars: Homo sapiens; NCI-H1792, 72 h, average of PrestoBlue and Cell Titer Glo; AKR1C3 418.6 TPM; read-out: Absolute Qualified AC50.
Source text: as §1, §2, §3, §4, §5, §6, §7

Another test concerns RERF-LC-AI. The note with it: 72 h, average of PrestoBlue and Cell Titer Glo, AKR1C3 7.6 TPM, read-out: Absolute Qualified AC50.
Source text: as §1, §2, §3, §4, §5, §6, §7

Another test relates to NCI-H1703. The note with it: Homo sapiens; NCI-H1703, 72 h, average of PrestoBlue and Cell Titer Glo; AKR1C3 3.2 TPM; read-out: Absolute Qualified AC50.
Source text: as §1, §2, §3, §4, §5, §6, §7

A further test relates to NCI-H460. Particulars: Homo sapiens; NCI-H460, 72 h, average of PrestoBlue and Cell Titer Glo; AKR1C3 865.3 TPM; read-out: Absolute Qualified AC50.
Source text: as §1, §2, §3, §4, §5, §6, §7

In another test the test system is RERF-LC-MS. Particulars: 72 h, average of PrestoBlue and Cell Titer Glo, AKR1C3 221.6 TPM, read-out: Absolute Qualified AC50.
Source text: as §1, §2, §3, §4, §5, §6, §7

The next test relates to VMRC-LCD. Particulars: 72 h, average of PrestoBlue and Cell Titer Glo, AKR1C3 expression: no data available, read-out: Absolute Qualified AC50.
Source text: as §1, §2, §3, §4, §5, §6, §7

For the next test, the system named is NCI-H2172. The note with it: NCI-H2172, 72 h, average of PrestoBlue and Cell Titer Glo; AKR1C3 1522.4 TPM; read-out: Absolute Qualified AC50.
Source text: as §1, §2, §3, §4, §5, §6, §7

As a reminder, the AC50 is the concentration at which the activity in the assay is half-maximal. Consider `CN1c2ccc(F)cc2C(=O)CC12CCN(C(=O)NCc1ccc(F)c(NCCO)c1)CC2` [Example 36, 6′-fluoro-N-(4-fluoro-3-((2-hydroxyethyl)amino)benzyl)-1′-methyl-4′-oxo-3′,4′-dihydro-1′H-spiro[piperidine-4,2′-quinoline]-1-carboxamide], for which the AC50 was over 1000 nM in the test on LCLC-103H; over 1000 nM in the test with SBC5; over 1000 nM in the test on NCI-H1299; over 1000 nM in the test with A427; 275 nM in the test with NCI-H1944; 946 nM with NCI-H1573. The AC50 in the test with HCC95 was 287 nM; with NCI-H1792, 553 nM; in the test on RERF-LC-AI, over 1000 nM; with NCI-H1703 it was over 1000 nM; in the test with NCI-H460, 268 nM; with RERF-LC-MS, over 1000 nM. Further, the AC50 was 474 nM with VMRC-LCD and over 1000 nM in the test on NCI-H2172.
`O=C1CC2(CCN(C(=O)NCc3ccc(F)cc3)CC2)Nc2ccc(F)cc21` [Example 40]: the AC50 in the test with LCLC-103H is over 1000 nM; in the test on SBC5, over 1000 nM; in the test with NCI-H1299, over 1000 nM; with A427 it was over 1000 nM; in the test with NCI-H1944, 52 nM; in the test on NCI-H1573 it was 293 nM. Further, the AC50 is 69 nM in the test on HCC95; 196 nM in the test with NCI-H1792; over 1000 nM in the test on RERF-LC-AI; over 1000 nM in the test on NCI-H1703; 50 nM with NCI-H460; over 1000 nM in the test with RERF-LC-MS. For the same compound, the concentration at half-maximal activity (AC50) with VMRC-LCD came out at 330 nM; in the test with NCI-H2172, 149 nM.
